# In patent US20260000685A1, “PHARMACEUTICAL COMPOSITION FOR PREVENTING OR TREATING DEGENERATIVE BRAIN DISEASES, COMPRISING CANNABINOIDS AS ACTIVE INGREDIENT, AND USES THEREOF” (NEOCANNBIO CO., LTD., priority 2022, published 2026):
# Key:
# amyloid beta (Aβ) = test: Western blotting of Aβ expression in Aβ1-42-treated primary neuronal cells; type: cell-based, ICR mice; details: with Aβ1-42 (5 μM), 24 hours; for expression level of oligomeric Aβ / expression level of polymeric Aβ: CBDA (6 μM) or THCA (5 μM), FIG. 6; for expression level of AB: compared to Aβ1-42 alone, FIG. 5
# Experimental: (§1) Specifically, primary neuronal cells derived from ICR mice were cultured for 6 days, and then treated with CBDA, THCA, THC, or CBN compounds while treating with Aβ1-42 (5 μM), and treated together for 24 hours. Next, Western blotting was conducted to confirm the expression levels of APP (Amyloid Precursor Protein), polymeric Aβ, and oligomeric AB in the cells.
# (§2) To conduct Western blotting, tissues were homogenized in radioimmunoprecipitation assay buffer (Cell Signaling) to acquire tissue lysates. Tissue protein concentrations were determined using the Bio-Rad protein assay (Bio-Rad, Hercules, CA, USA), and Western blot analysis was conducted using 80-120 μg of protein. Next, the Western blotting samples prepared using the proteins were separated using 12% SDS-PAGE and transferred to a polyvinylidene fluoride membrane (PVDF) (Merck Millipore, Burlington, MA, USA; 0.4 μm). The PVDF was blocked with tris-buffered saline including 5% bovine serum albumin and Tween-20, and incubated with primary antibodies overnight at 4° C. After primary antibody incubation, the samples were incubated with HRP-conjugated secondary antibody (Sigma; 1:5000) for 1 hour at room temperature, and immunodetection was conducted using an enhanced chemiluminescence detection kit (GE Healthcare, Chicago, IL, USA).
# [1] = tested on: APP (Amyloid Precursor Protein); test: Western blotting of APP expression in Aβ1-42-treated primary neuronal cells; type: cell-based, ICR mice; details: CBDA (6 μM) or THCA (5 μM), with Aβ1-42 (5 μM), 24 hours; FIG. 6
# Experimental: as §1, §2
# [2] = tested on: phosphorylated tau (p-Tau); test: Western blot of Tau/p-Tau in hippocampal tissues of animal model; type: in vivo, ICR mice; details: day 19; compared to Aβ1-42 treated group; FIG. 16
# Experimental: as §2
# (§3) Specifically, hippocampal tissues were acquired on day 19 from the animal models created in Example 7 above (PBS treated group, Aβ1-42 treated group, CBDA treated group, and THCA treated group), and Western blot analysis was conducted on the hippocampal tissues to evaluate the expression levels of Tau and phosphorylated Tau (p-Tau).
# [3] = tested on: p-TrkB (Tyrosine receptor kinase B); test: Western blot of p-TrkB in hippocampal tissues of animal model; type: in vivo, ICR mice; details: day 19; compared to Aβ1-42 treated group; FIG. 17
# Experimental: as §2
# as §3, with “BDNF, p-CREB,” for “Tau”, “p-TrKB.” for “phosphorylated Tau (p-Tau).”
# [4] = tested on: Alzheimer's animal model (Aβ1-42 treated mice); test: Novel object recognition test (NOR) in Aβ1-42 Alzheimer's animal model; type: in vivo, ICR mice; details: compared to mice treated with only Aβ1-42; FIG. 14
# Experimental: Female ICR mice (8 weeks old) used in the experiment were purchased from Coretech (Pyeongtaek, Korea). Mice were housed in the animal care facility of the Korea Institute of Science and Technology (KIST) (temperature 22±2° C., humidity 40-60%, 12-hour light/dark cycle). Mice were housed in an environment with free access to food and water. All animal experiments were conducted in accordance with the protocol approval of the Animal Ethics Committee of our institution.
# Next, to create an animal model, mice were randomly selected and divided into four groups as follows: PBS treated group (PBS+PBS), Aβ1-42 treated group (Aβ1-42 +PBS) (Alzheimer's animal model), CBDA treated group (Δβ1-42+CBDA (6.25 µM, 3 μL/mouse)), and THCA treated group (Δβ1-42+THCA (12.5 μM, 3 μL/mouse)).
# After anesthetizing the isolated mice by intraperitoneal (i.p.) injection of avertin (250 mg/kg), the mice were fixed in a stereotaxic apparatus, and CBDA, THCA, Aβ1-42, or PBS (3 μl/15 min/mouse) were gradually delivered to the hippocampus using a Hamilton syringe (coordinates of bregma: mediolateral (ML)=1.30 mm, anteroposterior (AP)=−2.00 mm, dorsoventral=−2.20 mm).
# First, the Novel Object Recognition Test (NOR) was conducted to examine a natural tendency of the experimental mice to explore novel stimuli. For this purpose, during the habituation session conducted 2 days before the test, the mice were allowed to explore the test environment consisting of an opaque custom-made Plexiglas box (35 cm×45 cm×25 cm) for 10 minutes. The sample object phase was conducted 24 hours later. Two identical white circular cylinders (sample objects) were placed on opposite edges of the test environment, and mice were given access to the objects for 10 minutes. After 4 hours (novel object stage), one of the sample objects in the test environment was replaced with a similarly sized novel object (colored miniature animal), and the mouse was allowed to contact this novel arrangement for 5 minutes. The time when the mouse's nose stayed <1 cm away from the object was considered the time the mouse explored the object, excluding the time when the mouse stood on the object. The identification rate was calculated as the time spent exploring the novel object relative to the time spent exploring the two objects.
# [5] = tested on: BDNF (brain-derived neurotrophic factor); test: Western blot of BDNF in hippocampal tissues of animal model; type: in vivo, ICR mice; details: day 19; compared to Aβ1-42 treated group; FIG. 17
# Experimental: as §2
# as §3, with “BDNF, p-CREB,” for “Tau”, “p-TrKB.” for “phosphorylated Tau (p-Tau).”
# [6] = tested on: p-CREB (CAMP Response Element-Binding Protein); test: Western blot of p-CREB in hippocampal tissues of animal model; type: in vivo, ICR mice; details: day 19; compared to Aβ1-42 treated group; FIG. 17
# Experimental: as §2
# as §3, with “BDNF, p-CREB,” for “Tau”, “p-TrKB.” for “phosphorylated Tau (p-Tau).”
# [7] = tested on: primary cortical neuron cells; test: Intracellular calcium concentration in neuronal cells (fluo-4 AM fluorescence imaging); type: cell-based; details: CBDA (6.25 μM), THCA (12.5 μM), THC (12.5 μM) with Aβ1-42 (5 μM), 24 hours; compared to Aβ1-42 alone; FIG. 8 and 9
# Experimental: Specifically, primary cortical neuron cells were seeded in 96-wells at 5×10^5 cells per well and cultured for 6 days. […] Next, to measure the concentration of calcium ions in neuronal cells by detecting Ca^2+ using fluorescence imaging, the cells were washed with PBS and treated with 10 μM Ca^2+ indicator fluo-4 AM (Thermo) for […]. The stained sections were washed with PBS, covered with Prolong Gold Antifide Reagent (Invitrogen, Carlsbad, CA, USA) including DAPI nuclear stain, and observed using a microscope (Carl Zeiss, Oberkochen, Germany). Fluo-4 AM fluorescence signal intensity was measured using the Image J analysis program (National Institute of Health, Bethesda, […], USA).
SMILES,expression level of oligomeric Aβ (amyloid beta (Aβ)),expression level of polymeric Aβ (amyloid beta (Aβ)),expression level of AB (amyloid beta (Aβ)),expression level of APP [1],expression level of p-Tau in hippocampal tissues [2],phosphorylation level of p-Tau in hippocampal tissues [2],expression level of p-TrKB in hippocampal tissues [3],identification rate (NOR) [4],time investigating the novel object [4],expression level of BDNF in hippocampal tissues [5],expression level of p-CREB in hippocampal tissues [6],intracellular calcium ion concentration [7]
C=C(C)[C@@H]1CCC(C)=C[C@H]1c1c(O)cc(CCCCC)c(C(=O)O)c1O [CBDA],significantly reduced,significantly reduced,significantly reduced,significantly reduced,significantly reduced,significantly reduced,significantly increased,significantly increased,spent more time,significantly increased,significantly increased,significantly reduced
"CCCCCc1cc2c(c(O)c1C(=O)O)[C@@H]1C=C(C)CC[C@H]1C(C)(C)O2 [THCA, (6aR, 10aR)-1-Hydroxy-6,6,9-trimethyl-3-pentyl-6a,7,8,10a-tetrahydro-6H-benzo[c]chromene-2-carboxylic acid]",significantly reduced,significantly reduced,significantly reduced,significantly reduced,significantly reduced,significantly reduced,significantly increased,significantly increased,spent more time,significantly increased,significantly increased,significantly reduced
